Test results reported in patent publication US11142547B2, “Polypeptide and use thereof” (Genoimmune Therapeutics Co., Ltd., priority 2016, dated 2021).

How the values were obtained:
[1] = system: human non-small cell lung adenocarcinoma cell line H2087—polypeptide FLLGNLFFV (SEQ ID NO:1); experiment: DC polypeptide vaccine in subcutaneous tumor-modeled mice; type: in vivo, NOD/SCID mice; details: DCs loaded with the polypeptide, intracutaneous, vs DCs loaded with wild-type polypeptide; FIG. 6
Protocol: (§1) The human non-small cell lung adenocarcinoma cell line NCI-H2087 which is HLA-A*0201 positive was purchased from ATCC (Cat. No.: CRL-5922). The cell line NCI-H2087 was incubated in the Dulbecco's Modified Eagle Medium (DMEM) containing 10% fetal calf serum, 100 U/mL penicillin and 100 U/mL streptomycin in an incubator under 37° C. and 5% CO2, and subsequently infected with the lentivirus expressing the mutant polypeptide (depicted in […], SEQ ID NO:1) as prepared in 6.1. Afterwards, the infected cells were incubated with the Puromycin antibiotic for a certain duration to screen out those viable infected cells, i.e., obtaining the human non-small cell lung adenocarcinoma cell line H2087 which expresses the mutant polypeptide (depicted in […], SEQ ID NO:1) and named as the human non-small cell lung adenocarcinoma cell line H2087—polypeptide […] (SEQ ID NO:1).
(§2) After isolated with Ficoll solution from 600 to 900 ml anticoagulant peripheral blood from a healthy volunteer, the collected PBMCs in a concentration of 2×10^7 cells/0.5 ml were intraperitoneally injected into each of 300 NOD SCID mice without immune leakage, so as to reconstruct a human immune system in the NOD SCID mice, with the mice after 4 weeks selected for subsequent inoculation of the human non-small cell lung adenocarcinoma cell line H2087—polypeptide […] obtained in 6.2.
(§3) The human non-small cell lung adenocarcinoma cell line H2087—polypeptide […] (SEQ ID NO:1) obtained in 6.2 was incubated in DMEM medium containing 10% fetal calf serum, 100 U/mL penicillin and 100 U/mL streptomycin in an incubator under 37° C. and 5% CO2, and then the cells were centrifuged at 3000 rpm for collection. The collected cells were washed with sterile physiological saline three times, and then diluted appropriately. To 40 μl tumor cell suspension, 10 μl 0.4% […] was added for staining, subsequently the tumor cell suspension in a concentration of 1×10^8 cells/ml was prepared after counting under microscope. 100 μl of the tumor cell suspension was inoculated into each of the NOD/SCID mice by subcutaneous injection at 4 weeks post immune reconstruction in 6.3, with daily observation of the presence/absence of infection at inoculation sites, the increase/decrease of tumor size (in the case of presence of a tumor), and measurement of the major axis (a) and the minor axis (b) of a tumor by a vernier caliper every 2 or 3 days (where the tumor size=a×b×b/2). After 7 days from inoculation, a tumor in a size of rice grain was touchable at the inoculation site. After that, the subcutaneous tumor-modeled NOD/SCID mice (modeled with H2087—polypeptide […] (SEQ ID NO:1)) were treated with a polypeptide+complete Freund's adjuvant vaccine, a polypeptide+DCs vaccine, a lentivirus-infected DCs vaccine and a DC-CTL vaccine respectively, with the tumor size and mouse survival rate observed and recorded every 2 days.
Peripheral blood mononuclear cells (PBMCs) in 100 to 150 mL anticoagulant peripheral blood obtained from a healthy volunteer were isolated with Ficoll solution. The collected PBMCs suspended in the RPMI 1640 medium in a concentration of 2×10^6-3×10^6 cells/ml were incubated at 37° C. for 2 hours, obtaining adherent monocytes which can be induced into DCs, and non-adherent peripheral blood lymphocytes (PBLs) for use. Such the monocytes were induced into immature DCs in the presence of GM-CSF (1000 U/ml) and IL-4 (1000 U/ml), followed by inducing to mature DCs in the presence of IFN-γ (100 U/ml) and CD40L (10 ng/ml), as well as the subsequently added 10 μg/ml wild-type polypeptide (depicted in […], SEQ ID NO:5), 10 μg/ml mutant polypeptide (depicted in […], SEQ ID NO:1), 10 μg/ml mutant polypeptide's variant (depicted in […], SEQ ID NO:2), 10 μg/ml mutant polypeptide's variant (depicted in […], SEQ ID NO:3), and 10 μg/ml mutant polypeptide's variant (depicted in […], SEQ ID NO:4), respectively. […]

[2] = system: human non-small cell lung adenocarcinoma cell line H2087—polypeptide FLLGNLFFV (SEQ ID NO:1); experiment: Polypeptide + Freund's adjuvant vaccine in subcutaneous tumor-modeled mice; type: in vivo, NOD/SCID mice; details: adjuvant+polypeptide 100 μg s.c., vs adjuvant alone and adjuvant+wild-type polypeptide groups; FIG. 5
Protocol: as §1, §2, §3
The subcutaneous tumor-modeled NOD/SCID mice obtained in 6.4 of the example 6 were divided into 6 groups randomly as below, with 6 mice per group:
Except for the adjuvant alone group, mice in other 5 groups received first immunization, by subcutaneous injection at two sites of the mouse back with 100 μg wild-type polypeptide (depicted in […], SEQ ID NO:5), 100 μg mutant polypeptide (depicted in […], SEQ ID NO:1), 100 μg mutant polypeptide's variant (depicted in […], SEQ ID NO:2), 100 μg mutant polypeptide's variant (depicted in […], SEQ ID NO:3), and 100 μg mutant polypeptide's variant (depicted in […], SEQ ID NO:4), respectively, each of which was mixed with 150 μl Freund's complete adjuvant in PBS to a final volume of 300 μl. After 2 weeks, differently-immunized mice in 5 groups received respective same-dosage booster immunizations at 2 week interval for 4 times in total, with incomplete Freund's adjuvant for the latter three immunizations. […]

[3] = system: T2 cells loaded with polypeptide; experiment: CD8+ T cell killing activity by LDH release assay; type: cell-based, human; details: T cells activated by listed polypeptide; for Killing of T2 cells loaded with the mutant polypeptide (in words) / Killing of T2 cells loaded with the wild-type polypeptide (in words): effector:target 1:1 or 1:10; for Killing efficiency: 4 hours
Protocol: The mixture of cells collected in the example 3 were incubated with the T2 cells loaded with the mutant polypeptide (depicted in […], SEQ ID NO:1) or the wild-type polypeptide (depicted in […], SEQ ID NO:5), or the T2 cells without polypeptide respectively for 4 hours; after which 50 μL cell supernatant collected from each well was individually added into 50 μL substrate mixture of LDH for catalyzation of the LDH substrate, and the absorbance at wavelengths of 490 nm and 680 nm (as a reference) is measured, where a maximum release well, a volume correction well, a medium alone well, a spontaneous release well of effector cell and a spontaneous release well of target well as different control wells, as well effector cells (T cells) and target cells (T2 cell) in different ratios as experiment wells are set in triplicate.
The killing efficiency of CD8^+ T cells to T2 cells is calculated by the following formula: Killing efficiency (%)=(experiment well−spontaneous release well of effector cell−spontaneous release well of target well+medium alone well)/(maximum release well of target well−volume correction well−spontaneous release well of target well+medium alone well)×100%.
PMS) and reduced lodonitrotetrazolium chloride (INT) or Nitrotetrazolium Blue chloride (NBT), thus the viability of effector cells can be calculated according to the OD value.

[4] = effector:target 1:1, T2 cells loaded with mutant FLLGNLFFV
[5] = effector:target 1:1, T2 cells loaded with wild-type FLLGNLSFV
[6] = effector:target 10:1, T2 cells loaded with mutant FLLGNLFFV
[7] = effector:target 10:1, T2 cells loaded with wild-type FLLGNLSFV

| Sequence | Mouse survival period [1] | Tumor growth [1] | Mouse survival period [2] | Tumor growth [2] | Killing of T2 cells loaded with the mutant polypeptide (in words) [3] | Killing of T2 cells loaded with the wild-type polypeptide (in words) [3] | Killing efficiency [3, 4] [%] | Killing efficiency [3, 5] [%] | Killing efficiency [3, 6] [%] | Killing efficiency [3, 7] [%] |
| --- | --- | --- | --- | --- | --- | --- | --- | --- | --- | --- |
| FLLGNLFFL | prolonging the mouse survival period | mitigating tumor growth significantly | prolonging mouse survival period effectively | inhibiting tumor growth | capable of killing | could not kill | 8.53 | 3.12 | 41.66 | 5.71 |
| FLLGNLFFV | prolonging the mouse survival period | mitigating tumor growth significantly | prolonging mouse survival period effectively | inhibiting tumor growth | capable of killing | could not kill | 8.96 | 3.23 | 43.89 | 6.63 |
| FMLGNLFFL | prolonging the mouse survival period | mitigating tumor growth significantly | prolonging mouse survival period effectively | inhibiting tumor growth | capable of killing | could not kill | 8.03 | 2.85 | 38.66 | 5.43 |
| FMLGNLFFV | prolonging the mouse survival period | mitigating tumor growth significantly | prolonging mouse survival period effectively | inhibiting tumor growth | capable of killing | could not kill | 8.12 | 2.37 | 39.82 | 4.93 |
